Measured values reported in patent US20210253575A1, “PYRROLIDINE AMINE COMPOUNDS FOR THE TREATMENT OF AUTOIMMUNE DISEASE” (Hoffmann-La Roche Inc., priority 2018, published 2021).

Molecular target: T1, human TLR8 (Homo sapiens, UniProt Q9NR97)
T1 sequence (Q9NR97 27-1041): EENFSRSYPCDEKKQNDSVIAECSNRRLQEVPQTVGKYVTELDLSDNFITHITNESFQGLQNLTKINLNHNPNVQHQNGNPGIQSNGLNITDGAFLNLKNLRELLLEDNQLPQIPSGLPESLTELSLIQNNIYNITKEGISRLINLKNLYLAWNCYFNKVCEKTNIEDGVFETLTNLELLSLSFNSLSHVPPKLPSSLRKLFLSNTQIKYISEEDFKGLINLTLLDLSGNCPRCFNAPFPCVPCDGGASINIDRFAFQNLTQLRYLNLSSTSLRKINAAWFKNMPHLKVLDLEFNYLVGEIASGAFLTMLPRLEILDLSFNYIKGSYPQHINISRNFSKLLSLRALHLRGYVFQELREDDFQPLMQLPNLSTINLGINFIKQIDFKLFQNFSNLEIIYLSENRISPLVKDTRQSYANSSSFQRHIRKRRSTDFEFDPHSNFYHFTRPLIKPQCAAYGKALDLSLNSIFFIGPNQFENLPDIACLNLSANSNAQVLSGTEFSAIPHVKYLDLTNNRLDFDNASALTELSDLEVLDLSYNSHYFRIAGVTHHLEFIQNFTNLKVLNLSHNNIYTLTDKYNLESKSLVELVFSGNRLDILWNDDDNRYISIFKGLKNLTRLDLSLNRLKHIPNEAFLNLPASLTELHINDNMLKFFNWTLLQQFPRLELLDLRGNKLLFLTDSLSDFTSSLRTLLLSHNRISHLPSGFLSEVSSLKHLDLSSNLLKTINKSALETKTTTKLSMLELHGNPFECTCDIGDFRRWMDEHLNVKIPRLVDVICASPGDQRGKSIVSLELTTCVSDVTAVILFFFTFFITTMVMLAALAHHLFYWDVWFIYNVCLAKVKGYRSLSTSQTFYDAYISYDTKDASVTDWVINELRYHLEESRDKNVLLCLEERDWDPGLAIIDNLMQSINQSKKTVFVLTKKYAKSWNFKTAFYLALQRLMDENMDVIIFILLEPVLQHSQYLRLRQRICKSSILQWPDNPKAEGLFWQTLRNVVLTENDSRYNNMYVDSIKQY
Test: HEK293-Blue-hTLR-8 cells assay (SEAP reporter, R848 stimulation)
Format: cell-based
Details: HEK293-Blue-hTLR8 cells, R848 ligand, 20 hrs incubation
Procedure, shortened: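 Antagonism was measured in HEK293-Blue-hTLR8 cells with an NF-κB/AP-1-driven SEAP reporter. Cells were stimulated with R848 (10 μL of 60 uM stock) alongside compound (1% DMSO) for 20 hrs at 37° C. Supernatant SEAP was read with QUANTI-Blue after 2 hrs, absorbance at 620-655 nm.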

Row | Compound | IC50 [µM]
1 | N#Cc1ccc(N2CC(CN3C4CCC3CC(N)C4)C3(CC3)C2)c2nccnc12 (stereo not drawn) [Example 25, 8-[7-[(3-Amino-8-azabicyclo[3.2.1]octan-8-yl)methyl]-5-azaspiro[2.4]heptan-5-yl]quinoxaline-5-carbonitrile] | 0.108
2 | C[C@H]1CN(c2ccc(C#N)c3nccnc23)C[C@@H]1CN1CCC2(CCNC2)C1 (stereo partly drawn) [Example 30, 8-[(3S,4R)-3-(2,7-diazaspiro[4.4]nonan-2-ylmethyl)-4-methyl-pyrrolidin-1-yl]quinoxaline-5-carbonitrile] | 0.072
3 | C[C@@H]1CN(c2ccc(C(F)(F)F)c3nccnc23)C[C@H]1CN1CCC2(CCNCC2)CC1 (relative stereo) [Example 21, 3-[[Trans-4-methyl-1-[8-(trifluoromethyl)quinoxalin-5-yl]pyrrolidin-3-yl]methyl]-3,9-diazaspiro[5.5]undecane] | 0.351
4 | FC(F)(F)c1ccc(N2CC(CN3C[C@H]4CNC[C@H]4C3)C3(CC3)C2)c2nccnc12 (stereo partly drawn) [Example 41, 5-[7-[[(3aR,6aS)-2,3,3a,4,6,6a-hexahydro-H-pyrrolo[3,4-c]pyrrol-5-yl]methyl]-5-azaspiro[2.4]heptan-5-yl]-8-(trifluoromethyl)quinoxaline] | 0.357
5 | N#Cc1ccc(N2CC(CN3CCOC4(CCNCC4)C3)C3(CC3)C2)c2nccnc12 (stereo not drawn) [Example 67, 8-[7-(1-Oxa-4,9-diazaspiro[5.5]undecan-4-ylmethyl)-5-azaspiro[2.4]heptan-5-yl]quinoxaline-5-carbonitrile] | 0.041
6 | N#Cc1ccc(N2C[C@H](CN3CCC4(CCNCC4)C3)[C@@H](C(F)(F)F)C2)c2nccnc12 [Example 46, 8-[(3S,4R)-3-(2,8-diazaspiro[4.5]decan-2-ylmethyl)-4-(trifluoromethyl)pyrrolidin-1-yl]quinoxaline-5-carbonitrile] | 0.067
7 | N#Cc1ccc(N2C[C@H](CN3CCC(N4CCCCC4)CC3)[C@@H](C(F)(F)F)C2)c2cccnc12 [Example 10, 5-[(3S,4R)-3-[[4-(1-piperidyl)-1-piperidyl]methyl]-4-(trifluoromethyl)pyrrolidin-1-yl]quinoline-8-carbonitrile] | 0.052
8 | N#Cc1ccc(N2C[C@H](CN3CCCC4(CCNCC4)C3)[C@@H](C(F)(F)F)C2)c2cccnc12 [Example 57, 5-[(3S,4R)-3-(2,9-Diazaspiro[5.5]undecan-2-ylmethyl)-4-(trifluoromethyl)pyrrolidin-1-yl]quinoline-8-carbonitrile] | 0.085
9 | N#Cc1ccc(N2CC(CN3CCC4(CCCCN4)CC3)C3(CC3)C2)c2nccnc12 (stereo not drawn) [Example 65, 8-[7-(1,9-Diazaspiro[5.5]undecan-9-ylmethyl)-5-azaspiro[2.4]heptan-5-yl]quinoxaline-5-carbonitrile] | 0.092
10 | N#Cc1ccc(N2C[C@@H](CN3CCC4(CCNCC4)CC3)[C@H](C(F)F)C2)c2cccnc12 (relative stereo) [Example 27, 5-[Trans-3-(3,9-diazaspiro[5.5]undecan-3-ylmethyl)-4-(difluoromethyl)pyrrolidin-1-yl]quinoline-8-carbonitrile] | 0.454
11 | N#Cc1ccc(N2C[C@H](CN3CCC4(CCCNC4)C3)[C@@H](C(F)(F)F)C2)c2cccnc12 (stereo partly drawn) [Example 6, 5-[(3S,7R)-3-(2,9-diazaspiro[4.5]decan-2-ylmethyl)-4-(trifluoromethyl)pyrrolidin-1-yl]quinoline-8-carbonitrile] | 0.039
12 | N#Cc1ccc(N2CC(CN3CCC4NCC4C3)C3(CC3)C2)c2nccnc12 (stereo not drawn) [Example 66, 8-[7-(3,7-Diazabicyclo[4.2.0]octan-3-ylmethyl)-5-azaspiro[2.4]heptan-5-yl]quinoxaline-5-carbonitrile] | 0.082
13 | N#Cc1ccc(N2C[C@H](CN3CC4(CC(N)C4)C3)[C@@H](C(F)(F)F)C2)c2cccnc12 [Example 53, 5-[(3S,4R)-3-[(6-Amino-2-azaspiro[3.3]heptan-2-yl)methyl]-4-(trifluoromethyl)pyrrolidin-1-yl]quinoline-8-carbonitrile] | 0.146
14 | N#Cc1ccc(N2C[C@H](CN3CCC4(CCCNC4)CC3)[C@@H](C(F)(F)F)C2)c2cccnc12 [Example 55, 5-[(3S,4R)-3-(2,9-Diazaspiro[5.5]undecan-9-ylmethyl)-4-(trifluoromethyl)pyrrolidin-1-yl]quinoline-8-carbonitrile] | 0.042
15 | N#Cc1ccc(N2C[C@H](CN3CCC4(CCNCC4)C3)[C@@H](C(F)(F)F)C2)c2cccnc12 [Example 56, 5-[(3S,4R)-3-(2,8-Diazaspiro[4.5]decan-2-ylmethyl)-4-(trifluoromethyl)pyrrolidin-1-yl]quinoline-8-carbonitrile] | 0.062
16 | N#Cc1ccc(N2C[C@H](CN3CCC(N)CC3)[C@@H](C(F)(F)F)C2)c2nccnc12 [Example 51, 8-[(3S,4R)-3-[(4-amino-1-piperidyl)methyl]-4-(trifluoromethyl)pyrrolidin-1-yl]quinoxaline-5-carbonitrile] | 0.057
17 | N#Cc1ccc(N2C[C@H](CN3CCC4(CCNC4)CC3)[C@@H](C(F)(F)F)C2)c2nccnc12 [Example 14, 8-[(3S,4R)-3-(2,8-Diazaspiro[4.5]decan-8-ylmethyl)-4-(trifluoromethyl)pyrrolidin-1-yl]quinoxaline-5-carbonitrile] | 0.019
18 | N#Cc1ccc(N2CC(CN3CC4CCNCC43)C3(CC3)C2)c2nccnc12 (stereo not drawn) [Example 50, 8-[7-(3,8-Diazabicyclo[4.2.0]octan-8-ylmethyl)-5-azaspiro[2.4]heptan-5-yl]quinoxaline-5-carbonitrile] | 0.038
